Test results taken from PMC5607274, “An iterative compound screening contest method for identifying target protein inhibitors using the tyrosine-protein kinase Yes” (Scientific Reports, 2017).

Each molecule was assayed against T1, human recombinant Yes [a.a. 2–543 (end)] (Homo sapiens, UniProt P07947) (assay: ADP-Glo kinase assay, inhibition rates of Yes phosphorylation activity (first and second screening)). Details: first screening; mean of n = 4 wells; 10 μmol L−1 compound.
T1 construct: human recombinant Yes [a.a; 2–543 (end)]; purchased BPS Bioscience 40488
T1 sequence (P07947 2-543): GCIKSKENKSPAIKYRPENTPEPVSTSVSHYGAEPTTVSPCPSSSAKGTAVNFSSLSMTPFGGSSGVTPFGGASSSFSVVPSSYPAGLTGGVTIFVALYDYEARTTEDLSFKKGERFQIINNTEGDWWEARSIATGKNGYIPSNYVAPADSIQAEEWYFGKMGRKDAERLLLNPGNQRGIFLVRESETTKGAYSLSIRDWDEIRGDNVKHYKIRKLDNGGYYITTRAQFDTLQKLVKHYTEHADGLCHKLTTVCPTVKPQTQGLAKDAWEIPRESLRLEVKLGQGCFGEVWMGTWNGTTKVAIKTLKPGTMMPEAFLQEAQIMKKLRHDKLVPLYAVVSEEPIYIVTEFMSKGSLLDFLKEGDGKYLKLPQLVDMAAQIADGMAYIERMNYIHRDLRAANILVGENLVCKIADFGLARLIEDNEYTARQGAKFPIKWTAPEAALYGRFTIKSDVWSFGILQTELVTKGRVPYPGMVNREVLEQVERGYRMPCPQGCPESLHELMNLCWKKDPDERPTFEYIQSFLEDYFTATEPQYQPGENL
Format: biochemical
Method in brief: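 ADP-Glo luminescence measured inhibition of human recombinant Yes (a.a. 2–543) phosphorylation activity. In the first screen, each compound ran in 4 wells and inhibition rates were averaged. The second screen retested hits as compounds dissolved from fresh powder.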

Compound	First screening IR (inhibition rate)
Cc1sc2nc(-c3cccnc3)nc(NC3CC3)c2c1C [Compound Z31232965]	-3%
CCN(CCO)c1nc(-c2ccccn2)nc2scc(-c3ccccc3)c12 [Compound Z31238841]	19%
CC1CCc2c(sc3nc(-c4cccnc4)nc(N4CCCCCCC4)c23)C1 (stereo not drawn) [Compound Z31262492]	4%
CCOC(=O)c1ccc(-n2c(O)c(C=NCc3ccccn3)c3ccccc3c2=O)cc1 [Compound Z31275874]	-12%
CCOc1ccc(-n2c(O)c(C=NCCCN3CCOCC3)c3ccccc3c2=O)cc1 [Compound Z31276645]	-6%
CCN(CC)S(=O)(=O)c1ccc(NC(=O)CNC(=O)C23CC4CC(CC(C4)C2)C3)cc1 [Compound Z31827545]	8%
O=C(Cc1cccc(F)c1)NNC(=O)Cn1c(COc2ccc(Cl)cc2)nc2ccccc21 [Compound Z31930719]	-2%
CC(C)(CNC(=O)c1cccc(N2CC(O)=C(c3nc4ccccc4s3)C2=N)c1)N1CCOCC1 [Compound Z32220177]	8%
O=C(CCC(=O)N1CCC(c2ccccc2)=N1)NCc1cccc(Cl)c1 [Compound Z32361141]	30%
O=C(CCc1c[nH]c2ccccc12)Nc1ccc(F)c([N+](=O)[O-])c1 [Compound Z32407809]	4%
Cc1cc(C(=O)CCC(=O)NCCc2c[nH]c3ccccc23)c(C)s1 [Compound Z32439393]	21%
O=C(Nc1ccc(N2CCCCC2)c(S(=O)(=O)Nc2ccc(Cl)cc2)c1)c1ccc(S(=O)(=O)NCc2ccco2)cc1 [Compound Z32729001]	-5%
Cc1cc(F)ccc1S(=O)(=O)Nc1ccc(C(=O)Nc2cccc(CO)c2)cc1 [Compound Z32804094]	11%
Cc1noc(C)c1COc1ccc(C(=O)NCCCn2ccc3ccccc32)cc1 [Compound Z32811942]	3%
Cc1nc2ccc(NC(=O)CNC(=O)c3ccccc3F)cc2s1 [Compound Z33270206]	4%
COc1ccc(OC)c(-n2c(-c3ccc(C)cc3)nn(CN3CCN(c4ccc(O)cc4)CC3)c2=S)c1 [Compound Z44104256]	10%
COc1ccc(OC)c(-n2c(-c3ccc(C)cc3)nn(CN3CCN(c4cccc(Cl)c4)CC3)c2=S)c1 [Compound Z44116384]	31%
COc1ccc2cc(C3(C)NC(=O)N(CN4CCN(C/C=C/c5ccccc5)CC4)C3=O)ccc2c1 (stereo not drawn) [Compound Z44124119]	1%
CC1CC(C)(C)CC2(C1)NC(=O)N(CN1CCN(c3ccc(C(F)(F)F)cn3)CC1)C2=O (stereo not drawn) [Compound Z44255985]	18%
CCCCOc1ccc(/C=C2/C(=O)Nc3ccc(Cl)cc32)cc1 [Compound Z44304381]	6%
CCCOc1cc(/C=C2/C(=O)Nc3ccc(Cl)cc32)ccc1OC [Compound Z44304730]	9%
COc1cc(/C=C2/C(=O)Nc3ccc(Cl)cc32)cc(Cl)c1OC(F)F [Compound Z44304760]	4%
CCOc1ccc(O)c(/C=C2\C(=O)Nc3ccc(Cl)cc32)c1 [Compound Z44304769]	23%
Cc1nc(/C=C2/C(=O)Nc3ccc(Cl)cc32)cs1 [Compound Z44304809]	13%

Compound	First screening IR (inhibition rate)
O=C1Nc2ccccc2/C1=C\c1ccc(O)cc1 [Compound Z44305789]	25%
COc1cc(/C=C(\C#N)C(=O)NC2CCCCC2)ccc1OCC(=O)Nc1ccc(Br)cc1 [Compound Z44319326]	-16%
CC(Nc1ccc2c(c1)OCCO2)C(=O)Nc1ccc(F)c(F)c1F (stereo not drawn) [Compound Z44489053]	4%
Cc1ccccc1Nc1nc(N)nc(CN(C)Cc2ccc(C(C)(C)C)cc2)n1 [Compound Z44561353]	5%
Cn1c(O)c(N=NC(=O)c2ccc(COc3ccccc3-c3ccccc3)cc2)c2ccccc21 [Compound Z44853786]	9%
COc1ccc(CSCc2nc(N)nc(Nc3ccccc3C)n2)cc1F [Compound Z45342622]	6%
Cc1ccccc1Nc1nc(N)nc(CSCC(=O)N2CCCCC2)n1 [Compound Z45354084]	18%
Cc1ccccc1Nc1nc(N)nc(CSc2ccc(C(F)(F)F)cn2)n1 [Compound Z45354574]	12%
O=[N+]([O-])c1ccc2nc(CSc3ccc(C(F)(F)F)cn3)[nH]c2c1 [Compound Z45358726]	7%
CCc1ccccc1Nc1nc(N)nc(CSCC(=O)c2cc(C)n(C)c2C)n1 [Compound Z45360560]	-2%
Cc1ccc(S(=O)(=O)N2CCN(S(=O)(=O)c3ccc(C)c(C)c3)CC2)cc1C [Compound Z45415135]	-5%
NS(=O)(=O)c1ccc(S(=O)(=O)N2CCCC2)cc1 [Compound Z45415601]	-6%
CCN(CC)S(=O)(=O)c1ccc(S(N)(=O)=O)cc1 [Compound Z45415602]	1%
CN(C)S(=O)(=O)c1ccc(S(N)(=O)=O)cc1 [Compound Z45415603]	11%
CCCN(S(=O)(=O)c1ccc(C)cc1)S(=O)(=O)c1ccc(Cl)cc1 [Compound Z45422005]	3%
CCCN(S(=O)(=O)c1ccc(Cl)cc1)S(=O)(=O)c1ccc(C)cc1C [Compound Z45422032]	5%
CCN(C1CCS(=O)(=O)C1)S(=O)(=O)c1ccc(Br)cc1 (stereo not drawn) [Compound Z45467079]	4%
CCN(C1CCS(=O)(=O)C1)S(=O)(=O)c1ccc(C)cc1 (stereo not drawn) [Compound Z45467092]	9%
CCN(C1CCS(=O)(=O)C1)S(=O)(=O)c1ccc(Cl)c(Cl)c1 (stereo not drawn) [Compound Z45467101]	12%
CCN(C1CCS(=O)(=O)C1)S(=O)(=O)c1ccc(C)c(C)c1 (stereo not drawn) [Compound Z45467115]	10%
CCN(C1CCS(=O)(=O)C1)S(=O)(=O)c1ccc(Br)cc1Cl (stereo not drawn) [Compound Z45467139]	2%
CCN(C1CCS(=O)(=O)C1)S(=O)(=O)c1c(C)c(C)c(C)c(C)c1C (stereo not drawn) [Compound Z45467174]	8%
CCN(C1CCS(=O)(=O)C1)S(=O)(=O)c1c(C)noc1C (stereo not drawn) [Compound Z45467189]	-5%
COc1ccc(NC(C)=O)cc1S(=O)(=O)N(C)Cc1cccc(OC)c1OC [Compound Z45476409]	2%

Compound	First screening IR (inhibition rate)
CC(C)CN(C1CCS(=O)(=O)C1)S(=O)(=O)c1ccc(Cl)cc1 (stereo not drawn) [Compound Z45480638]	1%
CC(C)CN(C1CCS(=O)(=O)C1)S(=O)(=O)c1ccc(Cl)c(Cl)c1 (stereo not drawn) [Compound Z45480661]	1%
CCCN(C1CCS(=O)(=O)C1)S(=O)(=O)c1ccccc1Cl (stereo not drawn) [Compound Z45480819]	-1%
CC(NS(=O)(=O)c1ccc(C(C)(C)C)cc1)c1ccc(-n2ccnc2)cc1 (stereo not drawn) [Compound Z45488256]	12%
CC(C)c1ccc(S(=O)(=O)NC(C)c2ccc(-n3ccnc3)cc2)cc1 (stereo not drawn) [Compound Z45488257]	-8%
O=S(=O)(c1c(Cl)cccc1Cl)N1CCN(Cc2nc3ccccc3s2)CC1 [Compound Z45503858]	3%
CCN(CC)S(=O)(=O)c1ccc(S(=O)(=O)N(C)C)cc1 [Compound Z45516173]	3%
CCN(CC)S(=O)(=O)c1ccc(S(=O)(=O)N(C)C(C)C)cc1 [Compound Z45539789]	11%
Cc1ccc(S(=O)(=O)N(C)S(=O)(=O)c2ccc(C#N)cc2)cc1 [Compound Z45549760]	3%
Cc1n[nH]c(C)c1S(=O)(=O)Nc1cccc(/C=C/c2ccccn2)c1 [Compound Z45649828]	36%
O=S(=O)(Nc1ccc(N2CCOCC2)cc1)c1ccc(Cl)c(C(F)(F)F)c1 [Compound Z45660528]	-2%
CC1CCCC(NC(=S)Nc2cccc(S(=O)(=O)N(C)C)c2)C1C (stereo not drawn) [Compound Z45768220]	27%
CCN(CC)S(=O)(=O)c1ccc(OC)c(NC(=S)NCc2ccccc2)c1 [Compound Z45779271]	13%
CCCCc1ccc(NC(=S)N2CC3(C)CC2CC(C)(C)C3)cc1 (stereo not drawn) [Compound Z45795780]	-6%
O=c1c2ccc(C(F)(F)F)cc2nc2n1CC/C2=C/c1cccnc1 [Compound Z45931417]	0%
O=C(O)c1c2c(nc3ccccc13)/C(=C\c1ccccc1)CCC2 [Compound Z46035726]	-14%
CC(=O)Nc1ccc(/C=C2/CCCc3c2nc2ccccc2c3C(=O)O)cc1 [Compound Z46035730]	5%
COc1ccc(/C=C2/CCCc3c2nc2ccccc2c3C(=O)O)cc1 [Compound Z46035754]	9%
O=C(O)c1c2c(nc3ccccc13)/C(=C\c1ccc(Cl)c(Cl)c1)CCC2 [Compound Z46035759]	0%
O=C(O)c1ccc(/C=C2/CCCc3c2nc2ccccc2c3C(=O)O)cc1 [Compound Z46035770]	1%
COc1cccc(/C=C2\CCCc3c2nc2ccccc2c3C(=O)O)c1 [Compound Z46035772]	11%
CCOc1cc(/C=C2/CCCc3c2nc2ccccc2c3C(=O)O)ccc1OC [Compound Z46035916]	51%

Same assay, conditions: second screening, dissolved from fresh powder; n = 4; 10 μmol L−1 compound

Compound	Second screening IR (inhibition rate)
Cc1n[nH]c(C)c1S(=O)(=O)Nc1cccc(/C=C/c2ccccn2)c1 [Compound Z45649828]	0%
CCOc1cc(/C=C2/CCCc3c2nc2ccccc2c3C(=O)O)ccc1OC [Compound Z46035916]	-8%
